Test results taken from PMC10373420, “A high-throughput screening system for SARS-CoV-2 entry inhibition, syncytia formation and cell toxicity” (Biological Procedures Online, 2023).
Entries after “also recorded” stand apart in the source; their conditions may differ. Where a name gives a salt, the structure may show the parent alone. Read-outs that look alike come from different tables or passages of the source. Numbered stars: 1 amine (or outer) side, 2 acyl side, 3 side chain; on linkers, the order of the positions; unused ones are H or OH. Bridge positions count the residues as written; N and C are the ends. Square brackets hold non-standard residues; d marks the D form. Peptide text beside a SMILES is read from it. I, II: the chains in the order shown. Actinocin(9to1) = Cc1c2oc3c(C)ccc(C(=O)[*:1])c3nc-2c(C(=O)[*:2])c(N)c1=O; NMeV = CN[C@H](C(=O)O)C(C)C; Sar = CNCC(=O)O

Columns and labels:
[1] = system: VSV-eGFP-SARS-CoV-2; experiment: microbe, parasite or virus in culture; assay type: cell-based; settings: for inhibition at 1 µM: read-out: inhibition of VSV-eGFP-SARS-CoV-2 infection, 1 μM; for inhibition at 5 µM: read-out: inhibition of VSV-eGFP-SARS-CoV-2 infection, 5 μM; for inhibition at 10 µM: read-out: inhibition of VSV-eGFP-SARS-CoV-2 infection, 10 μM; for IC50: read-out: IC50 against VSV-eGFP-SARS-CoV-2 infection
[2] = system: SiHa ACE2 Cerulean H2B mCherry cells
[3] = system: rVSV-G-GFP; assay type: cell-based, vesicular stomatitis virus (VSV)
[4] = system: ACE2-Spike dependent syncytia formation; assay type: cell-based, human; settings: IC50 concentration; for initiation of pseudoviral infection: control 7 hpi; for initiation of syncytia formation: imaging up to 24 hpi, control 12 hpi
[5] = system: VSV-eGFP-SARS-CoV-2; assay type: cell-based; settings: 1 μM
[6] = Severe acute respiratory syndrome coronavirus 2, SiHa

Row | Molecule | inhibition at 1 µM [1, 6] | inhibition at 5 µM [1, 6] | inhibition at 10 µM [1, 6] | rVSV-G-GFP infection inhibition (in words) [3] | initiation of pseudoviral infection [4] | initiation of syncytia formation [4] | also measured
1 | C[C@H]1CCC/C=C/[C@@H]2C[C@H](O)C[C@H]2[C@H](O)/C=C/C(=O)O1 [Brefeldin A] | 66% | 82% | 86% |  |  |  | 
2 | CCCCCC1=C/C(=C/c2[nH]c(-c3ccc[nH]3)cc2OC)N=C1C [Prodigiosin] | 86% | 98% | 100% |  |  |  | 
3 | CC[C@H](C)[C@H]1NC(=O)[C@@H](NC(=O)[C@@H](CC(C)C)N(C)C(=O)[C@@H]2CCCN2C(=O)C(C)O)[C@@H](C)OC(=O)[C@H](Cc2ccc(OC)cc2)N(C)C(=O)[C@@H]2CCCN2C(=O)[C@H](CC(C)C)NC(=O)[C@@H](C)C(=O)[C@H](C(C)C)OC(=O)C[C@@H]1O (some centres unmarked) [Didemnin B] |  | 100% | 100% | could inhibit the VSVG infection; also recorded: rVSV-G-GFP inhibition | 8 hpi | no syncytia was observed | cellular toxicity (H2B mCherry nuclear condensation) [2]: exhibited toxicity at higher doses; toxicity at IC50 dose [2]: minimum toxicity; IC50 [1, 6]: 190 nM; initiation of syncytia formation ([4]; listed as Didemin B): inhibits syncytia formation; inhibitory activity after preincubation of cells with natural product (in words) [5]: having inhibitory activity; also recorded: could inhibit viral infection
4 | COC1=C(N)C(=O)c2nc(-c3nc(C(=O)O)c(C)c(-c4ccc(OC)c(OC)c4O)c3N)ccc2C1=O [Streptonigrin] |  | 100% | 100% | could inhibit the VSVG infection; also recorded: rVSV-G-GFP inhibition | 8 hpi | 12 hpi | toxicity at IC50 dose [2]: minimum toxicity; IC50 [1, 6]: 380 nM
5 | CC[C@](C)(O)C(=O)O[C@H]1C(=O)O[C@@H]2C[C@H]3C(C)=C[C@H](O)[C@@H](O)[C@]3(C)[C@H]3[C@]4(O)OC[C@]32[C@@H]1[C@@H](C)[C@H]4O [Glaucarubin] | -7% | -1% | 33% |  |  |  | 
6 | CC1=C2C(=CC(C)(C)[C@@H]2O)C(=O)[C@](C)(O)C12CC2 [Illudin M] | 31% | 54% | 73% |  |  |  | 
7 | CC(=O)O[C@H]1C[C@H](O[C@H]2[C@@H](O)C[C@H](O[C@H]3[C@@H](O)C[C@H](O[C@H]4CC[C@@]5(C)[C@H](CC[C@@H]6[C@@H]5C[C@@H](O)[C@]5(C)[C@@H](C7=CC(=O)OC7)CC[C@]65O)C4)O[C@@H]3C)O[C@@H]2C)O[C@H](C)[C@H]1O[C@@H]1O[C@H](CO)[C@@H](O)[C@H](O)[C@H]1O [Allocor] | 49% | 89% | 92% |  |  |  | 
8 | Casirivimab |  |  |  |  |  |  | inhibition of VSV-eGFP-SARS-CoV-2 infection (in words) [1]: inhibition of VSV-eGFP-SARS-CoV-2 infection; IC50 [1]: 0.045 nM
9 | CO[C@H]1/C=C\C=C(/C)C(=O)NC2=CC(=O)C(N)=C(C[C@@H](C)C[C@H](OC)[C@H](O)[C@@H](C)/C=C(\C)[C@@H]1OC(N)=O)C2=O [17-Aminodemethoxygeldanamycin] |  |  |  | moderate inhibition | 8 hpi | 12 hpi | IC50 [1]: 560 nM; inhibition of VSV-eGFP-SARS-CoV-2 infection after pre-treatment of cells [5]: 50%; inhibitory activity after preincubation of cells with natural product (in words) [5]: having inhibitory activity; also recorded: moderate level of viral entry inhibition
10 | CC[C@]1(O)C[C@H]2CN(CCc3c([nH]c4ccccc34)[C@@](C(=O)OC)(c3cc4c(cc3OC)N(C=O)[C@H]3[C@@](O)(C(=O)OC)[C@H](OC(C)=O)[C@]5(CC)C=CCN6CC[C@]43[C@@H]65)C2)C1 [Vincristine sulfate, reference compound] | 32% | 38% | 39% |  |  |  | 
11 | COc1cccc2c1C(=O)c1c(O)c3c(c(O)c1C2=O)C[C@@](O)(C(C)=O)C[C@@H]3O[C@H]1C[C@H](N)[C@H](O)[C@H](C)O1 [Daunorubicin hydrochloride, reference compound] | -16% | 40% | 41% |  |  |  | 
12 | COc1ccc(/C=C/C(=O)c2ccccc2)cc1 [4-Methoxychalcone, reference compound] | -11% | -7% | 26% |  |  |  | 
13 | CC(=O)O[C@@]1(C)C[C@@H]([C@H](O)CC2CC(=O)NC(=O)C2)C(=O)[C@@H](C)C1 [Acetoxycycloheximide] |  | 100% | 100% | moderate level of inhibition | 10 hpi | 21 hpi | IC50 [1, 6]: 640 nM
14 | C[C@@H]1O[C@@H](O[C@@H]2C=C3CC[C@@H]4[C@H](CC[C@]5(C)[C@@H](c6ccc(=O)oc6)CC[C@]45O)[C@@]3(C)CC2)[C@H](O)[C@H](O)[C@H]1O[C@@H]1O[C@H](CO)[C@@H](O)[C@H](O)[C@H]1O [Scillaren A] |  |  |  | moderate level of inhibition | 8 hpi | 22 hpi | IC50 [1]: 410 nM
15 | C[C@H](N)C(=O)N[C@@H]1[C@H]2C(=C(O)C[C@@H](O)[C@@H]2O)C(=O)O[C@]1(C)C(Cl)Cl [Bactobolin] | 56% | 99% | 100% |  |  |  | 
16 | Cc1c2oc3c(C)ccc(C(=O)N[C@@H]4C(=O)N[C@H](C(C)C)C(=O)N5CCC[C@H]5C(=O)N(C)CC(=O)N(C)[C@@H](C(C)C)C(=O)O[C@@H]4C)c3nc-2c(C(=O)N[C@@H]2C(=O)N[C@H](C(C)C)C(=O)N3CCC[C@H]3C(=O)N(C)CC(=O)N(C)[C@@H](C(C)C)C(=O)O[C@@H]2C)c(N)c1=O [Dactinomycin, reference compound] (I: T[dV]P[Sar][NMeV] / II: T[dV]P[Sar][NMeV]; ester I:1-I:C, II:1-II:C; linker I:N-II:N via Actinocin(9to1)) | 39% | 56% | 58% |  |  |  | 
17 | CC(=O)O[C@H]1C[C@H](O[C@H]2[C@@H](O)C[C@H](O[C@H]3[C@@H](O)C[C@H](OC4CC[C@@]5(C)[C@H](CC[C@@H]6[C@@H]5CC[C@]5(C)[C@@H](C7=CC(=O)OC7)CC[C@]65O)C4)O[C@@H]3C)O[C@@H]2C)O[C@H](C)[C@H]1O[C@@H]1O[C@H](CO)[C@@H](O)[C@H](O)[C@H]1O (some centres unmarked) [Lanatoside A] | 81% | 97% | 98% |  |  |  | 
18 | C[C@@H]1O[C@@H](O[C@@H]2C=C3CC[C@@H]4[C@H](CC[C@]5(C)[C@@H](c6ccc(=O)oc6)CC[C@]45O)[C@@]3(C)CC2)[C@H](O)[C@H](O)[C@H]1O [Proscillaridin, reference compound] |  | 98% | 99% | moderate inhibition | 8 hpi | 16 hpi | IC50 [1, 6]: 220 nM
19 | CSC[S@+]([O-])C[C@H](CO)NC(=O)/C=C/c1c(C)[nH]c(=O)[nH]c1=O [Sparsomycin] | -2% | 80% | 94% |  |  |  | 
